Results on six compounds are retold here after ChEMBL document CHEMBL5724914, “Linking interpersonal differences in gut microbiota composition and drug biotransformation activity” (2024).

Data set [1] can be described thus: The drug is tested on Z-007 corresponding to rat gut metagenome with ENA study accession number: PRJEB37062 and ENA sample accession number: ERS12561807 for biotransformation under anaerobic condition. The drug concentrations were measured over 9 timepoints collected between 0 and 24 hours of incubation by liquid-chromatography-coupled mass spectrometry (LC–MS). Particulars: 2 µM.

For data set [2] the following is noted: human gut metagenome, 24 h, 2 µM.
The conditions of data set [3]: human gut metagenome, 24 h, 2 µM. The source holds these as a separate data set.
The conditions of data set [4]: human gut metagenome, 24 h, 2 µM. This is another data set of the same source.
For data set [5] the following is noted: human gut metagenome, 24 h, 2 µM. The source holds these as a separate data set.
Data set [6] can be described thus: The drug is tested on WLS-007 corresponding to human gut metagenome with ENA study accession number: PRJEB37062 and ENA sample accession number: ERS12561742 for biotransformation under anaerobic condition. The drug concentrations were measured over 9 timepoints collected between 0 and 24 hours of incubation by liquid-chromatography-coupled mass spectrometry (LC–MS). Particulars: 2 µM.

The nature of data set [7]: The drug is tested on Z-021 corresponding to metagenome with ENA study accession number: PRJEB37062 and ENA sample accession number: ERS12561820 for biotransformation under anaerobic condition. The drug concentrations were measured over 9 timepoints collected between 0 and 24 hours of incubation by liquid-chromatography-coupled mass spectrometry (LC–MS). Particulars: 2 µM.

Data set [8] in a line: The drug is tested on WLS-350 corresponding to human gut metagenome with ENA study accession number: PRJEB37062 and ENA sample accession number: ERS12561789 for biotransformation under anaerobic condition. The drug concentrations were measured over 9 timepoints collected between 0 and 24 hours of incubation by liquid-chromatography-coupled mass spectrometry (LC–MS). Particulars: 2 µM.

The conditions of data set [9]: human gut metagenome, 24 h, 2 µM. This is another data set of the same source.
A short description of data set [10]: The drug is tested on Z-022 corresponding to mouse gut metagenome with ENA study accession number: PRJEB37062 and ENA sample accession number: ERS12561821 for biotransformation under anaerobic condition. The drug concentrations were measured over 9 timepoints collected between 0 and 24 hours of incubation by liquid-chromatography-coupled mass spectrometry (LC–MS). As to conditions: 2 µM.

For data set [11] the following is noted: human gut metagenome, 24 h, 2 µM. The source holds these as a separate data set.
The nature of data set [12]: The drug is tested on Z-010 corresponding to metagenome with ENA study accession number: PRJEB37062 and ENA sample accession number: ERS12561810 for biotransformation under anaerobic condition. The drug concentrations were measured over 9 timepoints collected between 0 and 24 hours of incubation by liquid-chromatography-coupled mass spectrometry (LC–MS). As to conditions: 2 µM.

The nature of data set [13]: The drug is tested on Z-027 corresponding to metagenome with ENA study accession number: PRJEB37062 and ENA sample accession number: ERS12561826 for biotransformation under anaerobic condition. The drug concentrations were measured over 9 timepoints collected between 0 and 24 hours of incubation by liquid-chromatography-coupled mass spectrometry (LC–MS). Particulars: 2 µM.

For data set [14] the following is noted: human gut metagenome, 24 h, 2 µM. This is another data set of the same source.
For data set [15] the following is noted: human gut metagenome, 24 h, 2 µM. This is another data set of the same source.
The conditions of data set [16]: human gut metagenome, 24 h, 2 µM. The source holds these as a separate data set.
Data set [17] is described as follows: The drug is tested on Z-023 corresponding to metagenome with ENA study accession number: PRJEB37062 and ENA sample accession number: ERS12561822 for biotransformation under anaerobic condition. The drug concentrations were measured over 9 timepoints collected between 0 and 24 hours of incubation by liquid-chromatography-coupled mass spectrometry (LC–MS). Particulars: 2 µM.

For data set [18] the following is noted: human gut metagenome, 24 h, 2 µM. The source holds these as a separate data set.
For data set [19] the following is noted: human gut metagenome, 24 h, 2 µM. This is another data set of the same source.
The conditions of data set [20]: human gut metagenome, 24 h, 2 µM. This is another data set of the same source.

Each structure is given as a SMILES string.
Note: call rule not given here.

Regarding `Cc1cc2c(cc1S(N)(=O)=O)S(=O)(=O)CCC2`, the “Bacterial Biotransformation” value in [1], in [2], in [3], in data set [4], in [5] and in data set [6] was “Compound NOT metabolized” each time. Moreover, the “Bacterial Biotransformation” value in [7], in data set [8], in data set [9], in [10], in data set [11] and in data set [12] was “Compound NOT metabolized” in each case. The “Bacterial Biotransformation” value in data set [13], in [14], in data set [15], in [16], in [17] and in [18] was “Compound NOT metabolized” in each case. For the same compound, the “Bacterial Biotransformation” value in [19] and in data set [20] was “Compound NOT metabolized” in each case.
Consider `CN1CCc2c(c3ccccc3n2Cc2ccccc2)C1.CN1CCc2c(c3ccccc3n2Cc2ccccc2)C1.O=S(=O)(O)c1cccc2c(S(=O)(=O)O)cccc12`, for which the “Bacterial Biotransformation” value was “Compound NOT metabolized” in [1]; “Compound metabolized” in data set [2]; “Compound metabolized” in [3]; “Compound NOT metabolized” in data set [4]; “Compound NOT metabolized” in [5]; “Compound NOT metabolized” in data set [6]. Also, the “Bacterial Biotransformation” value in data set [7] is recorded as “Compound NOT metabolized”; in [8] it was “Compound NOT metabolized”; in data set [9], “Compound NOT metabolized”; in data set [10] it was “Compound NOT metabolized”; in data set [11], “Compound metabolized”; in data set [12] it was “Compound NOT metabolized”. The “Bacterial Biotransformation” value is reported as “Compound NOT metabolized” in data set [13]; “Compound NOT metabolized” in [14]; “Compound NOT metabolized” in [15]; “Compound metabolized” in [16]; “Compound NOT metabolized” in data set [17]; “Compound NOT metabolized” in data set [18]. For the same compound, the “Bacterial Biotransformation” value in data set [19] and in data set [20] was “Compound NOT metabolized” in each case.
Turning to `CN1CC(=O)N2[C@H](c3ccc4c(c3)OCO4)c3[nH]c4ccccc4c3C[C@@H]2C1=O`, the “Bacterial Biotransformation” value in data set [1] is “Compound NOT metabolized”; in data set [2], “Compound metabolized”; in data set [3], “Compound metabolized”; in data set [4], “Compound metabolized”; in data set [5], “Compound metabolized”; in [6] it was “Compound metabolized”. Further, the “Bacterial Biotransformation” value in [7] is “Compound metabolized”; in [8], “Compound metabolized”; in data set [9], “Compound NOT metabolized”; in data set [10], “Compound metabolized”; in [11], “Compound metabolized”; in data set [12] it was “Compound metabolized”. Besides, the “Bacterial Biotransformation” value in data set [13] is recorded as “Compound NOT metabolized”; in data set [14], “Compound metabolized”; in data set [15], “Compound NOT metabolized”; in [16] it was “Compound metabolized”; in data set [17] it was “Compound metabolized”; in data set [18], “Compound metabolized”. The “Bacterial Biotransformation” value in [19] is on record as “Compound metabolized”; in data set [20], “Compound NOT metabolized”.
Turning to `COc1cc2nc(N(C)CCCNC(=O)C3CCCO3)nc(N)c2cc1OC` (stereo not given) [ALFUZOSIN], the “Bacterial Biotransformation” value in data set [1] is reported as “Compound NOT metabolized”; in [2], “Compound metabolized”; in data set [3], “Compound NOT metabolized”; in [4], “Compound metabolized”; in data set [5], “Compound NOT metabolized”; in [6], “Compound metabolized”. Further, the “Bacterial Biotransformation” value in data set [7] is “Compound NOT metabolized”; in data set [8] it was “Compound metabolized”; in data set [9], “Compound NOT metabolized”; in data set [10], “Compound metabolized”; in data set [11], “Compound metabolized”; in [12], “Compound metabolized”. In addition, the “Bacterial Biotransformation” value is “Compound NOT metabolized” in [13]; “Compound NOT metabolized” in [14]; “Compound NOT metabolized” in data set [15]; “Compound NOT metabolized” in [16]; “Compound NOT metabolized” in data set [17]; “Compound metabolized” in [18]. For the same compound, the “Bacterial Biotransformation” value is “Compound metabolized” in [19] and “Compound NOT metabolized” in data set [20].
`NC12CC3CC(CC(C3)C1)C2` [AMANTADINE]: the “Bacterial Biotransformation” value in [1], in data set [2], in [3], in data set [4], in [5] and in data set [6] was “Compound NOT metabolized” throughout. Also, the “Bacterial Biotransformation” value in data set [7] is listed as “Compound NOT metabolized”; in data set [8], “Compound NOT metabolized”; in data set [9], “Compound NOT metabolized”; in data set [10] it was “Compound metabolized”; in data set [11], “Compound NOT metabolized”; in [12], “Compound NOT metabolized”. In addition, the “Bacterial Biotransformation” value in data set [13], in data set [14], in [15], in data set [16], in [17] and in data set [18] was “Compound NOT metabolized” each time. Besides, the “Bacterial Biotransformation” value in data set [19] and in data set [20] was “Compound NOT metabolized” throughout.
Regarding `CC(C)(C#N)c1cc(Cn2cncn2)cc(C(C)(C)C#N)c1` [ANASTROZOLE], the “Bacterial Biotransformation” value in data set [1] is given as “Compound NOT metabolized”; in data set [2], “Compound metabolized”; in data set [3], “Compound NOT metabolized”; in [4], “Compound metabolized”; in [5], “Compound NOT metabolized”; in [6], “Compound NOT metabolized”. The “Bacterial Biotransformation” value is “Compound metabolized” in data set [7]; “Compound metabolized” in data set [8]; “Compound NOT metabolized” in [9]; “Compound metabolized” in data set [10]; “Compound metabolized” in data set [11]; “Compound NOT metabolized” in data set [12]. In addition, the “Bacterial Biotransformation” value in data set [13] is on record as “Compound NOT metabolized”; in data set [14], “Compound NOT metabolized”; in [15], “Compound NOT metabolized”; in [16], “Compound metabolized”; in [17] it was “Compound metabolized”; in data set [18] it was “Compound metabolized”. The “Bacterial Biotransformation” value in [19] and in data set [20] was “Compound NOT metabolized” each time.
